Measured values taken from paper PMC7901650, “Garcinoic Acid Is a Natural and Selective Agonist of Pregnane X Receptor” (Journal of Medicinal Chemistry, 2020).

Biological target: T1, hPXR ligand binding domain (LBD) (Homo sapiens, UniProt O75469)
T1 construct: made in house; host or cells: E. coli BL21-Gold
T1 sequence (O75469 146-433 limits assumed): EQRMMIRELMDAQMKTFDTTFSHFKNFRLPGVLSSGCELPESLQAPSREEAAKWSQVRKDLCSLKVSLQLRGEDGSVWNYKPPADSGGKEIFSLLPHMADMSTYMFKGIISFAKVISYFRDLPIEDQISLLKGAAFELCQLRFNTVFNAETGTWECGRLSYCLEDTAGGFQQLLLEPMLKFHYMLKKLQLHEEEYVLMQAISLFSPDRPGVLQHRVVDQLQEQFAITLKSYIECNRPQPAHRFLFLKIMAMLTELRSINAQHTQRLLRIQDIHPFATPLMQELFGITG
Assay: Isothermal titration calorimetry, binding to His-tagged hPXR LBD
Details: ITC, 37 °C, pH 7.5
Text: To obtain direct proof of interaction with the hPXR ligand binding domain (LBD), we performed an isothermic titration calorimetry (ITC) experiment using His-tagged hPXR LBD protein in solution (Figure 1C). ITC measures the affinity, Ka, the Gibbs energy (ΔG = −RT ln Ka), and the changes in enthalpy, ΔH, and entropy, ΔS, associated with the binding of the FKK compounds (ΔG = −RT ln K = ΔH – TΔS). Enthalpic and entropic contributions to binding affinity define the nature of the forces that drive the binding reaction.[40],[41]
ITC was performed using a VP-ITC microcalorimeter from MicroCal/Malvern Instruments (Northampton, MA). The protein and the ligands (in DMSO, 8% vol/vol final concentration) were prepared in 25 mM Hepes, pH 7.5 with 150 mM NaCl. In all of the experiments, the ligand solution was injected in 10-μL aliquots into the calorimetric cell containing PXR-LBD [3 μM] at 37 °C. The respective concentrations of GA (1), 2, and 5 in the syringe were 60 μM each. The heat evolved upon each injection of the ligands was obtained from the integral of the calorimetric signal. The heat associated with binding to PXR-LBD in the cell was obtained by subtracting the heat of dilution from the heat of reaction.

C/C(=C\CC/C(C)=C/CC[C@]1(C)CCc2cc(O)cc(C)c2O1)CC/C=C(\C)C(=O)O [GA (1), (2E,6E,10E)-13-[(2R)-6-hydroxy-2,8-dimethyl-chroman-2-yl]-2,6,10-trimethyltrideca-2,6,10-trienoic acid]
N (stoichiometry): 0.9 | ΔG: -8.8 kcal/mol | ΔH: -6.4 kcal/mol | −TΔS: -2.4 kcal/mol | ΔG (listed as 1): -8.8 kcal/mol | ΔH (listed as 1): -6.4 kcal/mol
